Source: patent US5356921A, “Imidazolylphenol compounds, pharmaceutical compositions containing them, and processes for preparing such compounds and compositions” (Gruenenthal GmbH, priority 1992, dated 1994)

Experiments:
12-lipoxygenase = assay: Inhibition of 12-HETE- and 5S,12S-DiHETE-synthesis induced by FMLP/merthiolate of human polymorphonuclear leukocytes and thrombocytes; format: cell-based; details: coincubated human granulocytes and thrombocytes
Description: (§1) Human granulocytes were isolated by dextran-sedimentation and a Percoll gradient method and suspended in HBSS (Hanks buffered salt solution) at1×10^7 cells/mi. The cells were incubated in presence of a compound according to the invention or a solvent (ethanol and/or dimethyl sulfoxide) at 37° C. for 2 minutes, then with merthiolate (sodium ethylmercurithiosalicylate; 40 μM) for 2 minutes, and thereafter with FMLP (formyl-methionyl-leucylphenylalanine; 10^-7 M) for 15 minutes. After solid phase extraction the metabolites of arachidonic acid 5-HETE, LTB4, 6-trans-LTB4 -isomers, 20-OH-LTB4 and 20-COOH-LTB4 were identified by RP-HPLC [M. Haurand and L. Flohe in Biochem. Pharmacol. 38, 2129-37 (1989)].
Coincubations of human granulocytes and thrombocytes were carried out and investigated according to the inhibition of leukotriene-synthesis induced by FMLP/merthiolate. 12-HETE and 5S,12S-dihydroxy-HETE (5S,12S-DiHETE) were additionally included in the evaluation.

guinea pigs = assay: Allergen-induced bronchoconstriction in guinea pigs (Konzett-Roessler); format: in vivo, guinea pig; details: Cavia porcellus, po, 1 h, 60 minutes before ovalbumin, read-out: ED40-Value, inhibition of the bronchoconstriction elicited by ovalbumin
Description: The antiasthmatic effect of compounds according to the invention was tested in anesthetized and ventilated guinea pigs. To induce an asthmatic reaction, the animals were passively sensitized by a single intraperitoneal injection of anti-ovalbumin serum. After 48 hours an asthmatic reaction was elicited by intravenous challenge with 0.2 mg/kg of ovalbumin. The immediately resulting bronchoconstriction was measured as an increase in intratracheal pressure. Effects caused by histamine, serotonin and sympathic counterreaction were eliminated by intravenous pretreatment with 2.15 mg/kg of mepyramine, 46.4 μg/kg of propranolol, 4.64 mg/kg of atropine, and 1 mg/kg of methysergide, all administered 5 minutes before challenge. Compounds according to the invention were orally administered 60 minutes before the administration of ovalbumin. The following ED40-values for the inhibition of the bronchoconstriction elicited by ovalbumin, i.e. the effective doses causing a 40% average inhibition of the bronchoconstriction, were determined: […]

[1] = test system: Leukotriene-Synthesis Induced by FMLP/Merthiolate of Human Polymorphonuclear Leukocytes; assay: Inhibition of leukotriene-synthesis induced by FMLP/merthiolate of human polymorphonuclear leukocytes (reversibility); format: cell-based; details: Leukocyte, human granulocytes, preincubated 5 minutes, centrifuged, resuspended, read-out: IC50-value of the reversible inhibitory action
Description: as §1
To examine the reversibility of the inhibitory action the cells were incubated with a compound according the invention or a solvent (ethanol and/or dimethyl sulfoxide) at 37° C. for 5 minutes, centrifuged at 300×g for 5 minutes and resuspended in 2 ml HBSS. Then the cells were incubated with merthiolate (40 μM) at 37° C. for 2 minutes and thereafter with FMLP (10^-7 M) for 15 minutes. The IC50 -value of the reversible inhibitory action was 2μmolar when the compound prepared according to Example 1 was used.

5-lipoxygenase = 5-lipoxygenase inhibition in rat blood after oral administration (ex vivo iLTB4-formation); details: male Wistar rats, 21.5 mg/kg oral, one hour after administration, A 23 187 15 μg/ml
Description: The bioavailability of the compounds of formula I as 5-lipoxygenase inhibitors was characterized by means of an ex vivo biochemical assessment method described by Tateson et al. in Brit. J. Pharmacol. 94, 528 (1988). A compound of formula I was orally administered to male rats (Wistar strain) in a dose of 21.5 mg/kg. One hour after administration the rats after lethal CO2 -narcosis were bled by heart puncture with added heparin as an anticoagulant. Aliquots of the whole blood were incubated at 37° C. for 30 minutes in a water bath with calcium ionophore A 23 187 at an end concentration of 15 μg/ml. At the end of the incubation the samples were centrifuged, and the concentration of immunoreactive LTB4 (iLTB4) in aliquots of […] percent inhibition of ex vivo iLTB4 -formation in whole blood of rats treated with a compound according to the invention, rats orally treated with an appropriate vehicle solution were included in all experiments, and aliquots of their blood were run in parallel and were processed in the same way as described. The average iLTB4 -content of the plasma of the vehicle treated rats served as the 100% value. The activity in percent of the ex vivo iLTB4 -formation after oral administration of a compound according to the invention was calculated by dividing the average value of the iLTB4 -content in ng iLTB4 /ml of the group treated with a compound according to the invention by the average value of the iLTB4 -contents in ng iLTB4 /ml of the vehicle treated group and subsequent multiplication by the factor 100. The respective inhibition in percent was calculated by subtracting the activity in percent from 100.

IC50 [1]	SMILES	inhibitory action on 12-lipoxygenase (12-lipoxygenase)	ED40 (guinea pigs)	Inhibition of ex vivo iLTB4-formation in whole blood (5-lipoxygenase; 21.5 mg/kg)	Inhibition of ex vivo iLTB4-formation in whole blood (5-lipoxygenase)
2000 nM	NC(=O)N(O)Cc1ccc(Oc2ccc(-n3ccnc3)cc2)cc1 [Example 1, N-hydroxy-N-[4-[4-(1H-imidazol-1-yl)phenoxy]phenylmethyl]urea]	did not exert an inhibitory action on 12-lipoxygenase	9.3 mg/kg	89%	
	CC(=O)N(O)Cc1ccc(Oc2ccc(-n3ccnc3)cc2)cc1 [Example 3, N-hydroxy-N-[4-[4-(1H-imidazol-1-yl)phenoxy]phenylmethyl]acetamide]		15.5 mg/kg		91%
